Read-outs that look alike come from different tables or passages of the source.
Test system: Pyricularia oryzae
Format: cell-based

## CN/C(=N\[N+](=O)[O-])NCc1cnc(Cl)s1 [Chlothianidin, (E)-1-(2-chloro-1,3-thiazol-5-ylmethyl)-3-methyl-2-nitroguanidine]
  Efficacy (%): 8%

## CC1(C)CC/C(=C\c2ccc(Cl)cc2)C1(O)Cn1cncn1 (single isomer, unassigned; (+)) [Triticonazol, (+) E-5-(4-chlorobenzylidene)-2,2-dimethyl-1-(1H-1,2,4-triazol-1-ylmethyl)cyclopentanol]
Single compound, Conc 2 ppm, micro titer plate, 405 nm, 7 days after inoculation
  Efficacy (%): 44%
